No end group written: not given here.

One data set relates to cortical neurons. Put plainly: Entry into cultured cortical neurons, LC-MS of the lysate. The data set is classed as in vitro ADME, mouse. The note with it: 1 mg/dish, 1.0 x 10^7 cells/10-cm dish, 0, 10, 20, 30, 60, 180, 360 min. As for the experimental part: Intracellular amount of GPPGPAG after addition to cultured cortical neurons.
Mouse cortical neurons were seeded at 1.0 x 10^7 cells/10-cm dish. After 3 – 4 days culture, 1 mg/dish GPPGPAG was added. Incubation time was 0, 10,20, 30, 60, 180 and 360 min. After complete washing by PBS, cell lysate was prepared by M-PER solution. The lysate was ultrasonicated with methanol for 60 sec, and centrifuged (12000g) for 10 min at 4℃. Supernatant was dried up and served for […]
(1 picture or pasted object on this page, not shown here)

Data set [1] in a line: Stability in lysate of mouse cerebral cortex. Type of data set: in vitro ADME. As for the experimental part:
(§1) For intraventricular administration, GPPGPAG was dissolved in artificial cerebrospinal fluid (ACSF; 130 mM NaCl, 24 mM NaHCO3, 3.5 mM KCl, 1.3 mM Na2HPO4, 2 mM CaCl2, 2 mM MgCl2 6H2O, and 10 mM glucose at pH 7.4) for use. GPPGPAG or ACSF was continuously injected for 28 days into the left ventricle (bregma: −0.2 mm, lateral: 1.0 mm, depth: −3.0 mm) using Alzet Osmotic Pump (1004, DURECT Corporation, CA, United States) and ALZET Brain Infusion Kit 3 (DURECT Corporation). Based on the amount of CSF produced which was 18 μL/h and the pump flow rate of 0.11 μL/h, the peptide in the pump was estimated to be diluted 164 times in the CSF to reach a final concentration 10 nM which was the effective dose in the cultured neuron experiments. Therefore 1.64 µM GPPGPAG was loaded into the pump. Stability of GPPGPAG in saline, mouse plasma and mouse cerebral cortex was confirmed by LC-MS quantification. GPPGPAG was mixed with saline or plasma at 5 μg/ml concentration. Otherwise, GPPGPAG was mixed with cortical lysate at 6.5 μg/g of cortex. After incubation at 37°C for 0, 10, 60, and 180 min, samples were dried up and served to LC-MS. Areas of MS peaks of GPPGPAG were quantified. […]
(§2) Stability of GPPGPAG in biological fluids.
(§3) (A) GPPGPAG was mixed with saline at 5 μg/ml concentration. (B) GPPGPAG was mixed with mouse plasma at 5 μg/ml concentration. […]

A short description of data set [2]: Plasma level after oral administration, LC-MS. The data set is classed as in vivo. The note with it: 500 mg/animal, ddY mice, female, 8 weeks, 500 mg/mouse p.o. single dose, sampled at 10, 60, 180 min, n = 3, read-out: time of peak in the plasma (converted). As for the experimental part: Bioavailability and brain penetration of GPPGPAG was performed as previously described ([Yang et al., 2017]). GPPGPAG (500 mg) was dissolved in 750 μL of physiological saline. GPPGPAG or vehicle solution (physiological saline) was orally administered using an oral gavage to female ddY mice (8 weeks-old). The mice were euthanized at 10, 60, and 180 min after administration. Blood was collected and centrifuged at 10,000 g and 4°C for 10 min to yield plasma. Plasma aliquots (200 μL) were extracted with methanol, dried, sonicated, and resolubilized in 50% methanol (100 μL). The cerebral cortex was also collected after complete saline perfusion for removing blood. […]
FIGURE 6 Brain penetration of GPPGPAG after oral administration in mice GPPGPAG (500 mg/mouse, p. o.) or vehicle solution (physiological saline) was administered to mice (ddY, females, 8 weeks old, n = 3) as a single dose. […] (A) Total ion chromatogram (upper) and extracted ion current chromatogram (lower) of standard GPPGPAG (m/z = 552.2753) at 10 μg/ml for quantification of (B) and (C) data. […] In total ion chromatogram (upper) and extracted ion current chromatogram (lower) of m/z = 552.2753, no peaks were detected. […] In total ion chromatogram and extracted ion current chromatogram of m/z = 552.2753, peaks matching the retention time of GPPGPAG were detected. […]

A further data set can be described thus: Stability in saline. The data set is classed as physicochemical. The note with it: 5 μg/ml, 37°C, 0, 10, 60, 180 min, LC-MS, n = 1. As for the experimental part:
as §1, §2, §3

Data set [3] in a line: Stability in mouse plasma. The data set is classed as in vitro ADME. The note with it: 5 μg/ml, 37°C, 0, 10, 60, 180 min, LC-MS, n = 1. The method, then: as §1, §2, §3

Turning to GPPGPAG [GPPGPAG], the “entry into the neurons (intracellular amount)” value in the data set with cortical neurons was “detected from 10 min after treatment and gradually increased up to 360 min afterward”. For the same substance, the “stability, amount remaining (MS peak area)” value is “declined at 60 min after the incubation” in data set [1] (fresh lysate of mouse cerebral cortex, 6.5 μg/g of cortex, 37°C, 0, 10, 60, 180 min, LC-MS, n = 1); “not declined during 180 min-incubation” in “Stability in saline”; “gradually reduced after 60-min incubation” in data set [3]. Further, the “time retained in the brain after entering” value in data set [1] (inferred from stability in plasma and cortical lysate) was at most 10 min. The Tmax in data set [2] was 10 min.
